Measured values published in DBAASP.
In brackets after ≈: the same amount, converted by molar mass. One block for each compound: values may come before it.

Assays:
Experiment in all cases: ≥ marks a high value that may be exact or a test limit, other limits are often not marked, values filed in µg/mL are converted to µM
[1] = tested on: Staphylococcus aureus ATCC 33591
[2] = tested on: Klebsiella pneumoniae ATCC 700603
[3] = tested on: Staphylococcus aureus ATCC 29213
[4] = tested on: Pseudomonas aeruginosa ATCC 27853
[5] = tested on: Staphylococcus aureus ATCC 700699
[6] = tested on: Escherichia coli ATCC 25922
Staphylococcus aureus = tested on: Staphylococcus aureus
Proteus mirabilis = tested on: Proteus mirabilis
Pseudomonas aeruginosa = tested on: Pseudomonas aeruginosa
Streptococcus pyogenes = tested on: Streptococcus pyogenes
[7] = tested on: Bacillus subtilis KCTC 3068
[8] = tested on: Pseudomonas aeruginosa KCTC 2513
[9] = tested on: Bacillus subtilis KCTC 1022
[10] = tested on: Staphylococcus aureus KCTC 1916
[11] = tested on: Escherichia coli KCTC 2593
[12] = tested on: Staphylococcus aureus KCTC 3881
[13] = tested on: Escherichia coli KCTC 1682
[14] = tested on: Staphylococcus epidermidis KCTC 1917
[15] = tested on: Staphylococcus aureus KCTC 1621
[16] = tested on: Salmonella typhimurium KCTC 1926
[17] = tested on: Escherichia coli KCTC 2571
[18] = tested on: Pseudomonas aeruginosa KCTC 1637
[19] = tested on: Bacillus subtilis KCTC 1021
[20] = tested on: Pseudomonas aeruginosa KCTC 2004
[21] = tested on: Escherichia coli DH5alpha
[22] = tested on: Bacillus subtilis DSM 347
[23] = tested on: Rhizopus stolonifer CECT 2344
[24] = tested on: Aspergillus niger CECT 2694
[25] = tested on: Penicillium expansum EPS 26
[26] = tested on: Fusarium oxysporum f. sp. lycopersici ATCC 201829
[27] = tested on: Salmonella enterica serovar Typhimurium
[28] = tested on: Staphylococcus epidermidis
Escherichia coli UB1005 = tested on: Escherichia coli UB1005
[29] = tested on: Staphylococcus aureus ATCC 25923
[30] = tested on: Pseudomonas aeruginosa H103
Candida albicans = tested on: Candida albicans

SMILES: NC(N)=NCCC[C@H](NC(=O)[C@H](Cc1c[nH]c2ccccc12)NC(=O)[C@H](CCCN=C(N)N)NC(=O)[C@H](CCCN=C(N)N)NC(=O)[C@H](Cc1c[nH]c2ccccc12)NC(=O)[C@H](CCCN=C(N)N)NC(=O)[C@H](CCCN=C(N)N)NC(=O)[C@H](Cc1c[nH]c2ccccc12)NC(=O)[C@H](CCCN=C(N)N)NC(=O)[C@H](CCCN=C(N)N)NC(=O)[C@H](Cc1c[nH]c2ccccc12)NC(=O)[C@@H](N)CCCN=C(N)N)C(=O)O [RWRRWRRWRRWR]
MIC (Staphylococcus aureus): 5.96 µM (≈ 12 µg/mL)
MIC (Proteus mirabilis): 31.8 µM (≈ 64 µg/mL)
MIC (Pseudomonas aeruginosa): > 31.8 µM
MIC (Streptococcus pyogenes): 0.497 µM (≈ 1 µg/mL)

SMILES: CC[C@H](C)[C@H](NC(=O)CNC(=O)[C@H](CCCN=C(N)N)NC(=O)[C@H](Cc1ccccc1)NC(=O)[C@@H](NC(=O)[C@H](Cc1cnc[nH]1)NC(=O)[C@H](Cc1cnc[nH]1)NC(=O)[C@H](Cc1ccccc1)NC(=O)[C@@H](N)Cc1c[nH]c2ccccc12)[C@@H](C)CC)C(=O)N[C@H](C(=O)N[C@@H](Cc1cnc[nH]1)C(=O)N[C@H](C(=O)NCC(=O)N[C@@H](CCCCN)C(=O)N[C@H](C(=O)N[C@H](C(=O)N[C@@H](Cc1cnc[nH]1)C(=O)N[C@@H](CCCN=C(N)N)C(=O)N[C@@H](CC(C)C)C(=O)N[C@H](C(=O)N[C@H](C(=O)NCC(=O)O)[C@@H](C)O)C(C)C)[C@@H](C)CC)[C@@H](C)O)C(C)C)C(C)C [WFHHIFRGIVHVGKTIHRLVTG]
MIC [7]: 2 µM (≈ 5.22 µg/mL)
MIC [8]: 4 µM (≈ 10.4 µg/mL)
MIC [9]: 2 µM (≈ 5.22 µg/mL)
MIC [10]: 2 µM (≈ 5.22 µg/mL)
MIC [11]: 2 µM (≈ 5.22 µg/mL)
MIC [12]: 2 µM (≈ 5.22 µg/mL)
MIC [13]: 2 µM (≈ 5.22 µg/mL)
MIC [14]: 2 µM (≈ 5.22 µg/mL)
MIC [15]: 2 µM (≈ 5.22 µg/mL)
MIC [16]: 2 µM (≈ 5.22 µg/mL)
MIC [17]: 2 µM (≈ 5.22 µg/mL)
MIC [18]: 4 µM (≈ 10.4 µg/mL)
MIC [19]: 2 µM (≈ 5.22 µg/mL)
MIC [20]: 4 µM (≈ 10.4 µg/mL)

SMILES: CC[C@H](C)[C@H](NC(=O)[C@H](CCCCN)NC(=O)[C@H](CCCCN)NC(=O)[C@H](Cc1ccccc1)NC(=O)[C@H](CC(C)C)NC(=O)[C@H](CCCCN)NC(=O)[C@@H](N)Cc1ccccc1)C(=O)N[C@@H](CC(C)C)C(=O)N[C@@H](CCCCN)C(=O)N[C@H](C(=O)N[C@@H](CC(C)C)C(N)=O)C(C)C [FKLFKKILKVL]
MIC [23]: ≥ 70.7 µM
MIC [24]: 22.4 µM (≈ 30.8 µg/mL)
MIC [25]: ≥ 35.4 µM
MIC [26]: 1.73 µM (≈ 2.38 µg/mL)

SMILES: NC(N)=NCCC[C@H](NC(=O)[C@H](CCCN=C(N)N)NC(=O)[C@H](CCCN=C(N)N)NC(=O)[C@H](CCCN=C(N)N)NC(=O)[C@H](CCCN=C(N)N)NC(=O)[C@H](CCCN=C(N)N)NC(=O)[C@H](CCCN=C(N)N)NC(=O)[C@H](CCCN=C(N)N)NC(=O)[C@H](Cc1c[nH]c2ccccc12)NC(=O)[C@H](Cc1c[nH]c2ccccc12)NC(=O)[C@@H](N)Cc1c[nH]c2ccccc12)C(=O)O [WWWRRRRRRRR]
MIC (Staphylococcus aureus): 5.48 µM (≈ 10 µg/mL)
MIC (Proteus mirabilis): ≥ 35 µM
MIC (Pseudomonas aeruginosa): > 35 µM
MIC (Streptococcus pyogenes): 0.479 µM (≈ 0.875 µg/mL)

SMILES: CC[C@H](C)[C@H](NC(=O)[C@H](Cc1c[nH]c2ccccc12)NC(=O)[C@H](CC(C)C)NC(=O)[C@H](CCCN=C(N)N)NC(=O)[C@@H](N)C(C)C)C(=O)N[C@@H](CCCN=C(N)N)C(=O)N[C@H](C(=O)N[C@@H](C)C(=O)N[C@H](C(=O)N[C@H](C(=O)N[C@@H](CCCN=C(N)N)C(=O)N[C@@H](C)C(N)=O)[C@@H](C)CC)C(C)C)C(C)C [VRLWIRVAVIRA]
MIC [27]: ≥ 34.4 µM
MIC [28]: 2.07 µM (≈ 3 µg/mL)
MIC (Escherichia coli UB1005): 4.13 µM (≈ 6 µg/mL)
MIC [29]: 34.4 µM (≈ 50 µg/mL)
MIC [30]: ≥ 34.4 µM
MIC (Candida albicans): 34.4 µM (≈ 50 µg/mL)

Continued, values first:

MIC [1]: 25 µM (≈ 64.8 µg/mL)
MIC [2]: 25 µM (≈ 64.8 µg/mL)
MIC [3]: 100 µM (≈ 259 µg/mL)
MIC [4]: 50 µM (≈ 130 µg/mL)
MIC [5]: ≥ 50 µM
MIC [6]: 6.25 µM (≈ 16.2 µg/mL)
SMILES: CC[C@H](C)[C@H](NC(=O)[C@H](CC(=O)O)NC(=O)[C@H](CCCCN)NC(=O)[C@H](C)NC(=O)[C@H](C)NC(=O)CNC(=O)[C@H](CCCCN)NC(=O)[C@H](CC(C)C)NC(=O)[C@@H](NC(=O)[C@H](CC(=O)O)NC(=O)[C@@H](NC(=O)[C@@H](NC(=O)CN)C(C)C)C(C)C)[C@@H](C)CC)C(=O)N[C@@H](CC(C)C)C(=O)NCC(=O)N[C@@H](Cc1cnc[nH]1)C(=O)N[C@@H](CC(C)C)C(=O)N[C@@H](C)C(=O)N[C@@H](CO)C(=O)N[C@@H](CCCCN)C(=O)N[C@H](C(=O)N[C@@H](CCSC)C(=O)N[C@@H](CC(N)=O)C(=O)N[C@@H](CCCCN)C(=O)N[C@@H](CC(C)C)C(N)=O)C(C)C [GVVDILKGAAKDILGHLASKVMNKL]

MIC [21]: 0.8 µM (≈ 2.01 µg/mL)
MIC [22]: 1.6 µM (≈ 4.02 µg/mL)
SMILES: CC[C@H](C)[C@H](NC(=O)CN)C(=O)NCC(=O)N[C@@H](CCCCN)C(=O)N[C@@H](Cc1ccccc1)C(=O)N[C@H](C(=O)N[C@@H](Cc1cnc[nH]1)C(=O)N[C@@H](C)C(=O)N[C@H](C(=O)N[C@@H](CCCCN)C(=O)N[C@@H](CCCCN)C(=O)N[C@@H](Cc1c[nH]c2ccccc12)C(=O)NCC(=O)N[C@@H](CCCCN)C(=O)N[C@H](C(=O)N[C@@H](Cc1ccccc1)C(=O)N[C@H](C(=O)NCC(=O)N[C@@H](CCC(=O)O)C(=O)N[C@H](C(=O)N[C@@H](C)C(=O)N[C@@H](CCCCN)C(=O)N[C@@H](CO)C(N)=O)[C@@H](C)CC)[C@@H](C)CC)[C@@H](C)O)C(C)C)[C@@H](C)CC [GIGKFIHAVKKWGKTFIGEIAKS]

MIC [1]: ≥ 100 µM
MIC [2]: > 100 µM
MIC [3]: > 100 µM
MIC [4]: > 100 µM
MIC [5]: ≥ 100 µM
MIC [6]: > 100 µM
SMILES: CC[C@H](C)[C@H](NC(=O)[C@H](CC(=O)O)NC(=O)[C@H](CCCCN)NC(=O)[C@H](C)NC(=O)[C@H](C)NC(=O)CNC(=O)[C@H](CCCCN)NC(=O)[C@H](CC(C)C)NC(=O)[C@H](C)NC(=O)[C@H](CC(=O)O)NC(=O)[C@@H](NC(=O)[C@@H](NC(=O)CN)C(C)C)C(C)C)C(=O)N[C@@H](C)C(=O)NCC(=O)N[C@@H](Cc1cnc[nH]1)C(=O)N[C@@H](CC(C)C)C(=O)N[C@@H](C)C(=O)N[C@@H](CO)C(=O)N[C@@H](CCCCN)C(=O)N[C@H](C(=O)N[C@@H](CCSC)C(=O)N[C@@H](CC(N)=O)C(=O)N[C@@H](CCCCN)C(=O)N[C@@H](CC(C)C)C(N)=O)C(C)C [GVVDALKGAAKDIAGHLASKVMNKL]
